{"source": "patent US4918079A", "about": "“Imidazole derivatives as 5-HT3 receptor antagonists” (Beecham Group p.l.c., priority 1987, dated 1990)", "system": "von Bezold-Jarisch reflex evoked by 5-HT", "test": "Antagonism of the von Bezold-Jarisch reflex evoked by 5-HT in the anaesthetised rat", "type": "in vivo", "conditions": "iv, male rats, urethane anaesthesia, 5-HT usually 6 μg/kg i.v., heart rate, read-out: ED50 (concentration required to reduce the 5-HT-evoked response to 50% of the control response)", "method": "Antagonism of the von Bezold-Jarisch reflex\nThe compounds were evaluated for antagonism of the von Bezold-Jarisch reflex evoked by 5-HT in the anaesthetised rat according to the following method:\nMale rats 250≥350 g, were anaesthetised with urethane (1.25 g/kg intraperitoneally) and blood pressure and heart rate recorded as described by Fozard J. R. et al., J. Cardiovasc. Pharmacol. 2, 229-245 (1980). A submaximal dose of 5-HT (usually 6 μg/kg) was given repeatedly by the intravenous route and changes in heart rate quantified. Compounds were given intravenously and the concentration required to reduce the 5-HT-evoked response to 50% of the control response (ED50) was then determined.", "note": "Structures can show the parent of a compound that is named as a salt.", "data": [{"compound": "CC1(C)CN(C(=O)CCc2c[nH]cn2)c2ccccc21", "note": "[Example E1, monohydrochloride]", "values": [{"measurement": "ED50", "value": 4.2, "unit": "µg/kg"}]}]}
